The values below come from patent publication US20240174662A1, “SMALL MOLECULE INHIBITORS OF SALT INDUCIBLE KINASES” (Janssen Biotech, Inc., priority 2021, published 2024).

SMILES strings stand for the structures.

SIK2, sequence (Q9H0K1 whole entry, species assumed): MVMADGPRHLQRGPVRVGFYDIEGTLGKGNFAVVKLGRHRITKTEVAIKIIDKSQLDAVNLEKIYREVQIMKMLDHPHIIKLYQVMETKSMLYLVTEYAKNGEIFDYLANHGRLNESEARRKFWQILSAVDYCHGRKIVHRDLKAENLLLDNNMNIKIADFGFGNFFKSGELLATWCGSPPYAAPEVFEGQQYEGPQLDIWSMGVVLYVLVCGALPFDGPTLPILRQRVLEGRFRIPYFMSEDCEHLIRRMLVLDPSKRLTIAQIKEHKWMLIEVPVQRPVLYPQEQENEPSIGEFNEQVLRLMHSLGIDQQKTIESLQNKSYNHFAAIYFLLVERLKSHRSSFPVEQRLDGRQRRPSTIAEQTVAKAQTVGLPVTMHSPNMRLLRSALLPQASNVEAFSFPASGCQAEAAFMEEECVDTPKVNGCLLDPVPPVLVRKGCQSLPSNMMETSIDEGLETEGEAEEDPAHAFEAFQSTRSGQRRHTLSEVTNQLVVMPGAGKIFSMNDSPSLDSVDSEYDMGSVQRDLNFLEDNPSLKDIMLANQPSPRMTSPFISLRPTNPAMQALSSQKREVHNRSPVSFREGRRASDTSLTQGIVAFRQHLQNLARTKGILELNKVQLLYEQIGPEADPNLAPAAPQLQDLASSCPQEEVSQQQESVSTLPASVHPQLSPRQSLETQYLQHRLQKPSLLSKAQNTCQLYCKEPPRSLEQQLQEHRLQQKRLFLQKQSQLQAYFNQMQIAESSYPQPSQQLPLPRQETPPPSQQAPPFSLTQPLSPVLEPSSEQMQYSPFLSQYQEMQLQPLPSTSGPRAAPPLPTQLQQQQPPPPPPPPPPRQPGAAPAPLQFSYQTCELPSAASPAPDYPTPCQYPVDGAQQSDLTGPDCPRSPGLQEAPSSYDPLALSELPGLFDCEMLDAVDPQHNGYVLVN

The test addresses SIK2 (Homo sapiens (Human), UniProt Q9H0K1). Put plainly: SIK2 Enzymatic Assay Version 2 (High ATP). The settings on record: 3 mM ATP and 200 μM HDAC5tide final, ADP-Glo Max luminescence. The test is classed as biochemical. In outline:
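Luminescent ADP-Glo Max read-out: depletion reagent 2 h, then detection reagent 1 h. Before the reaction, compounds were incubated 30 min with enzyme added at 6 nM (twice final concentration), with all steps at room temperature.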
In general terms: ADP-Glo first removes unused ATP, then detects ADP through luciferase.
`CN1CC[C@@H]1COc1cnn(C)c1-c1ccn2nc(Nc3cnc(C(F)(F)F)cn3)cc2c1` [Example 150, 5-[2-methyl-4-[[(2R)-1-methylazetidin-2-yl]methoxy]pyrazol-3-yl]-N-[5-(trifluoromethyl)pyrazin-2-yl]pyrazolo[1,5-a]pyridin-2-amine] displayed an IC50 of 7.6 nM. The compound `C[C@H]1[C@H](OCc2cnn(C)c2-c2ccn3nc(NC(=O)C4CC4)cc3c2)CN1C` [Example 190, N-[5-[4-[[(2S,3R)-1,2-dimethylazetidin-3-yl]oxymethyl]-2-methyl-pyrazol-3-yl]pyrazolo[1,5-a]pyridin-2-yl]cyclopropanecarboxamide] gave an IC50 of 26.5 nM.

`Cn1ncc(OC[C@H]2CCN2)c1-c1ccn2nc(Nc3cncc(-n4cccn4)n3)cc2c1` [Example 291, 5-[4-[[(2R)-azetidin-2-yl]methoxy]-2-methyl-pyrazol-3-yl]-N-(6-pyrazol-1-ylpyrazin-2-yl)pyrazolo[1,5-a]pyridin-2-amine] had an IC50 of 31.2 nM. Next, `Cc1cc(Nc2cc3cc(-c4c(CO[C@H]5CN(C)C[C@H]5C)cnn4C)ccn3n2)nc(C)n1` [Example 367, (rac-cis)-N-(2,6-dimethylpyrimidin-4-yl)-5-[4-[(1,4-dimethylpyrrolidin-3-yl)oxymethyl]-2-methyl-pyrazol-3-yl]pyrazolo[1,5-a]pyridin-2-amine]: 2.9 nM; `Cc1onc(OC2CN(C)C2)c1-c1ccn2nc(NC(=O)C3CC3)cc2c1` [Example 494, N-[5-[5-methyl-3-(1-methylazetidin-3-yl)oxy-isoxazol-4-yl]pyrazolo[1,5-a]pyridin-2-yl]cyclopropanecarboxamide]: 424 nM; `CCN1CC[C@@H]1COc1cnn(C)c1-c1ccn2nc(Nc3ncc(F)cn3)cc2c1` [Example 176, (R)-5-(4-((1-ethylazetidin-2-yl)methoxy)-1-methyl-1H-pyrazol-5-yl)-N-(5-fluoropyrimidin-2-yl)pyrazolo[1,5-a]pyridin-2-amine]: 72.7 nM.

With `CCN1CC[C@@H]1COc1cnn(C)c1-c1ccn2nc(NC(=O)C3CC3)cc2c1` [Example 52, N-[5-[4-[[(2R)-1-ethylazetidin-2-yl]methoxy]-2-methyl-pyrazol-3-yl]pyrazolo[1,5-a]pyridin-2-yl]cyclopropanecarboxamide], the IC50 was determined as 3.6 nM. `Cc1onc(O[C@H]2CCNC2)c1-c1ccn2nc(NC(=O)C3CC3)cc2c1` [Example 75, N-[5-[5-methyl-3-[(3S)-pyrrolidin-3-yl]oxy-isoxazol-4-yl]pyrazolo[1,5-a]pyridin-2-yl]cyclopropanecarboxamide] displayed an IC50 of 35 nM. On to `CCN1CC[C@@H]1COc1cnn(C)c1-c1ccn2nc(Nc3cc(C)nc(C4CC4)n3)cc2c1` [Example 171, N-(2-cyclopropyl-6-methyl-pyrimidin-4-yl)-5-[4-[[(2R)-1-ethylazetidin-2-yl]methoxy]-2-methyl-pyrazol-3-yl]pyrazolo[1,5-a]pyridin-2-amine], for which the IC50 is below 0.847 nM. In turn, `CN1CC[C@H](Oc2cnn(C)c2-c2ccn3nc(Nc4cnc(C(F)(F)F)cn4)cc3c2)C1` [Example 453, 5-[2-methyl-4-[(3S)-1-methylpyrrolidin-3-yl]oxy-pyrazol-3-yl]-N-[5-(trifluoromethyl)pyrazin-2-yl]pyrazolo[1,5-a]pyridin-2-amine] came in with an IC50 of 162 nM. Turning to `Cc1cncc(Nc2cc3cc(-c4c(CO[C@H]5CN(C)C[C@@H]5C)cnn4C)ccn3n2)n1` [Example 373, (rac-trans)-5-[4-[(1,4-dimethylpyrrolidin-3-yl)oxymethyl]-2-methyl-pyrazol-3-yl]-N-(6-methylpyrazin-2-yl)pyrazolo[1,5-a]pyridin-2-amine], the IC50 is 7.2 nM. Next, `Cc1cc(Nc2cc3cc(-c4c(OC[C@H]5OCC[C@@H]5O)cnn4C)ccn3n2)nc(C)n1` [Example 300, (2R,3S)-2-[[5-[2-[(2,6-dimethylpyrimidin-4-yl)amino]pyrazolo[1,5-a]pyridin-5-yl]-1-methyl-pyrazol-4-yl]oxymethyl]tetrahydrofuran-3-ol]: 10.8 nM; `COC1CNC[C@@H]1Oc1noc(C)c1-c1ccn2nc(NC(=O)C3CC3)cc2c1` (mixture of isomers) [Example 200, (rac-cis)-N-[5-[3-(4-methoxypyrrolidin-3-yl)oxy-5-methyl-isoxazol-4-yl]pyrazolo[1,5-a]pyridin-2-yl]cyclopropanecarboxamide]: 29.4 nM; `CN1CC[C@@H]1COc1cnn(C)c1-c1ccn2nc(NC(=O)[C@H]3C[C@H]3c3ccccc3)cc2c1` [Example 158, (1S,2R)—N-[5-[2-methyl-4-[[(2R)-1-methylazetidin-2-yl]methoxy]pyrazol-3-yl]pyrazolo[1,5-a]pyridin-2-yl]-2-phenyl-cyclopropanecarboxamide]: 47.7 nM. As for `Cc1onc(OC[C@H](N)c2ccccc2F)c1-c1ccn2nc(NC(=O)C3CC3)cc2c1` [Example 221, N-[5-[3-[(2R)-2-amino-2-(2-fluorophenyl)ethoxy]-5-methyl-isoxazol-4-yl]pyrazolo[1,5-a]pyridin-2-yl]cyclopropanecarboxamide], the midpoint of inhibition, the IC50, lay at 23.2 nM. Next, `Cc1nccc(Nc2cc3cc(-c4c(O[C@H]5CCN(C)C5)cnn4C)ccn3n2)n1` [Example 456, 5-[2-methyl-4-[(3S)-1-methylpyrrolidin-3-yl]oxy-pyrazol-3-yl]-N-(2-methylpyrimidin-4-yl)pyrazolo[1,5-a]pyridin-2-amine]: 102 nM; `Cc1onc(OCC2(C#N)CNC2)c1-c1ccn2nc(NC(=O)C3CC3)cc2c1` [Example 77, N-[5-[3-[(3-cyanoazetidin-3-yl)methoxy]-5-methyl-isoxazol-4-yl]pyrazolo[1,5-a]pyridin-2-yl]cyclopropanecarboxamide]: 12.9 nM; `Cc1cc(Nc2cc3cc(-c4c(OCC56CC(CN5)C6)cnn4C)ccn3n2)nc(C)n1` [Example 288, 5-[4-(3-azabicyclo[2.1.1]hexan-4-ylmethoxy)-2-methyl-pyrazol-3-yl]-N-(2,6-dimethylpyrimidin-4-yl)pyrazolo[1,5-a]pyridin-2-amine]: 16.8 nM. The value for `Cc1onc(OC[C@@](C)(N)c2ccccc2)c1-c1ccn2nc(NC(=O)C3CC3)cc2c1` [Example 225, N-[5-[3-[(2S)-2-amino-2-phenyl-propoxy]-5-methyl-isoxazol-4-yl]pyrazolo[1,5-a]pyridin-2-yl]cyclopropanecarboxamide] was 12 nM; that for `CO[C@@H]1CNC[C@H]1COc1cnn(C)c1-c1ccn2nc(NC(=O)C3CC3)cc2c1` [Example 422, N-[5-[4-[[(3S,4S)-4-methoxypyrrolidin-3-yl]methoxy]-2-methyl-pyrazol-3-yl]pyrazolo[1,5-a]pyridin-2-yl]cyclopropanecarboxamide] was 96.9 nM. On to `CN1CC[C@@H]1COc1cnn(C)c1-c1ccn2nc(Nc3ccnc(C(F)(F)F)n3)cc2c1` [Example 118, 5-[2-methyl-4-[[(2R)-1-methylazetidin-2-yl]methoxy]pyrazol-3-yl]-N-[2-(trifluoromethyl)pyrimidin-4-yl]pyrazolo[1,5-a]pyridin-2-amine], for which inhibition was half-maximal at 1.9 nM (IC50). Next, `CCN1CC[C@@H]1COc1cnn(C)c1-c1ccn2nc(Nc3ccc4nccn4n3)cc2c1` [Example 175, N-[5-[4-[[(2R)-1-ethylazetidin-2-yl]methoxy]-2-methyl-pyrazol-3-yl]pyrazolo[1,5-a]pyridin-2-yl]imidazo[1,2-b]pyridazin-6-amine]: below 0.847 nM. Next, `Cc1cc(Nc2cc3cc(-c4c(OC[C@@H]5CCN(C)C5=O)cnn4C)ccn3n2)nc(C)n1` (single isomer, unassigned) [Example 34, (*S)-3-[[5-[2-[(2,6-dimethylpyrimidin-4-yl)amino]pyrazolo[1,5-a]pyridin-5-yl]-1-methyl-pyrazol-4-yl]oxymethyl]-1-methyl-pyrrolidin-2-one]: 9.2 nM.

As to `Cc1cc(Nc2cc3cc(-c4c(OC[C@]5(F)CCNC5)cnn4C(F)F)ccn3n2)nc(C)n1` (single isomer, unassigned) [Example 263, (*S)-5-(1-(difluoromethyl)-4-((3-fluoropyrrolidin-3-yl)methoxy)-1H-pyrazol-5-yl)-N-(2,6-dimethylpyrimidin-4-yl)pyrazolo[1,5-a]pyridin-2-amine], it took 40.2 nM to reach half-maximal inhibition (IC50). For `CCc1cc(Nc2cc3cc(-c4c(OC[C@@H]5CCN5CC)cnn4C)ccn3n2)nc(C)n1` [Example 169, 5-[4-[[(2S)-1-ethylazetidin-2-yl]methoxy]-2-methyl-pyrazol-3-yl]-N-(6-ethyl-2-methyl-pyrimidin-4-yl)pyrazolo[1,5-a]pyridin-2-amine], the IC50 amounted to 38.7 nM. Next, `COC1CNC[C@@H]1Oc1noc(C)c1-c1ccn2nc(NC(=O)C3CC3)cc2c1` (single isomer, unassigned) [Example 202, N-(5-(3-(((3*S,4*R)-4-methoxypyrrolidin-3-yl)oxy)-5-methylisoxazol-4-yl)pyrazolo[1,5-a]pyridin-2-yl)cyclopropanecarboxamide]: 12.3 nM. Compound `Cc1onc(OC[C@@H](N)c2ccccc2F)c1-c1ccn2nc(NC(=O)C3CC3)cc2c1` [Example 220, N-[5-[3-[(2S)-2-amino-2-(2-fluorophenyl)ethoxy]-5-methyl-isoxazol-4-yl]pyrazolo[1,5-a]pyridin-2-yl]cyclopropanecarboxamide] displayed a half-inhibitory concentration (IC50) of 4.9 nM.

Take `Cc1onc(O[C@@H]2CCNC3(CCC3)C2)c1-c1ccn2nc(NC(=O)C3CC3)cc2c1` (single isomer, unassigned) [Example 218, (*R)—N-[5-[3-(9-azaspiro[3.5]nonan-6-yloxy)-5-methyl-isoxazol-4-yl]pyrazolo[1,5-a]pyridin-2-yl]cyclopropanecarboxamide]: the midpoint of inhibition, the IC50, lay at 49.5 nM. For the compound `Cc1cc(Nc2cc3cc(-c4c(OC[C@@H](O)C5(C)CC5)cnn4C)ccn3n2)nc(C)n1` [Example 301, (1S)-2-[5-[2-[(2,6-dimethylpyrimidin-4-yl)amino]pyrazolo[1,5-a]pyridin-5-yl]-1-methyl-pyrazol-4-yl]oxy-1-(1-methylcyclopropyl)ethanol], the IC50 is 15.2 nM.

One may read the IC50 as the concentration that inhibits the measured activity by half.
